From patent publication US12017975B2, “Myc-Max inhibitor compound therapeutics for cancer treatment, methods and uses associated therewith” (THE UNIVERSITY OF BRITISH COLUMBIA, priority 2018, dated 2024)
Like-named read-outs stand apart in the source and are kept apart here. Residues, ends and D or L forms follow the SMILES beside them.

System: Myc-Max transcriptional activity
Experiment: Cignal c-Myc luciferase reporter assay in LNCaP cells
Format: cell-based
Conditions: for inhibition at 25 µM / IC50 / inhibition at 5 µM / inhibition at 10 µM: Homo sapiens, LNCaP; for IC50: TABLE 2, assay not named, values match Myc-Max transcriptional activity, read-out: IC50
Procedure: Cell transfection was performed using TransIT-2020™ transfection reagents according to the manufacturer's instructions (Mirus™). LNCaP cells were plated at 10000 cells per well and treated for 1 day with the indicated concentration of compound. Myc reporter activity was measured using the Cignal Myc Reporter Assay Kit™ from Qiagen™ (#336841) according to the manufacturer's instructions. For the UBE2C reporter assay, 22rv1 cells were plated at 10000 cells per well in 96-well plates in RPMI media supplemented with 5% charcoal-stripped serum (CSS) and treated for 1 day with 1 μM, 10 μM and 25 μM of compound.
Compounds were subjected to experimental evaluation using the commercially available transcriptional assay Cignal c-Myc luciferase reporter assay in LNCaP cells. […] A transiently transfected Myc-driven luciferase reporter allowed the monitoring of Myc-regulated signal in LNCaP upon treatment with the in silico identified compounds.

[1] = 24 h, LNCaP cells, TABLE 1, read-out: Myc-Max transcriptional activity % inhibition (25 μM)
[2] = TABLE 5, read-out: % Inhibition 25 μM
[3] = TABLE 3, read-out: % Inhibition 25 μM

SMILES | inhibition at 25 µM [2] | also measured
O=C1/C(=C/c2cccs2)SC(=S)N1c1cccc(O)c1 [VPC-70005] | – | inhibition at 25 µM (TABLE 4, read-out: % Inhibition (25 μM)): 65%; inhibition at 25 µM [1]: 65%; IC50: > 25 µM
CS(=O)(=O)Nc1ccccc1C(=O)OCc1cc(=O)oc2cc(O)ccc12 [VPC-70027] | 53% | inhibition at 25 µM [1]: 53%
O=C(CN1C(=O)NC2(CCCC2)C1=O)Nc1cccc(C(F)(F)F)c1 [VPC-70066] | 65% | inhibition at 25 µM [1]: 65%
O=C(CCc1csc(NC(=O)c2ccc(F)cc2)n1)NCCc1ccccc1 [VPC-70131] | 50% | –
O=C(CSCCO)Nc1ccc(C23CC4CC(CC(C4)C2)C3)cc1 [VPC-70146] | 52% | –
O=S(O)(=Nc1cccc2[nH]ccc12)C1CCc2n[nH]nc2C1 (stereo not drawn) [VPC-70158] | 41% | –
Cc1ccc(Nc2ccccc2N=S(=O)(O)c2ccc(C(=O)O)cc2)cc1 [VPC-70163] | 39% | –
O=C(NCCCc1ccccc1)NC[C@](O)(c1ccccc1)C(F)(F)F [VPC-70205] | 50% | –
O=C(NCCc1c[nH]c2ccccc12)C(=O)Nc1ccc(F)cc1 [VPC-70209] | 52% | –
C[C@@H](NC(=O)OCc1ccccc1)C(=O)NCC(=O)Nc1ccc(F)c(F)c1 [VPC-70211] | 47% | –
Cc1c(NC(=O)[C@H](C)OC(=O)c2cccc(O)c2)c(=O)n(-c2ccccc2)n1C [VPC-70216] | 40% | –
O=C(NCCc1c[nH]c2ccccc12)c1coc2ccccc2c1=O [VPC-70219] | 67% | IC50: > 25 µM
O=C(CNC(=O)NCc1ccc(F)cc1)NCc1ccc(OC(F)(F)F)cc1 [VPC-70222] | 68% | –
Cc1ccc(C(=O)NCC(=O)NCC(=O)Nc2ccc(F)c(F)c2F)cc1C [VPC-70236] | 32% | –
O=C(CCc1c[nH]c2ccccc12)NCc1noc(-c2ccccc2)n1 [VPC-70240] | 48% | –
C[C@@H](NC(=O)NC[C@@H](O)COc1cccc(F)c1)c1cccs1 [VPC-70247] | 35% | –
C[C@@H]1CCNC(=O)[C@H]1NC(=O)NCCCc1cccc(Cl)c1 [VPC-70249] | 65% | –
O=C(CNC(=O)C1CCCC1)NC[C@@H](O)COc1cccc2ccccc12 [VPC-70252] | 45% | –
C[C@@H]1CCCC[C@@H]1NC(=O)NCCCn1ccc2ccccc21 [VPC-70255] | 40% | –
C[C@@H](NC1=NS(=O)(=O)c2ccccc21)C(=O)NCCCSc1ccccc1 [VPC-70258] | 34% | –
C[C@@H](CCc1ccc(O)cc1)NC(=O)N[C@H]1CCOC2(CCCC2)C1 [VPC-70261] | 35% | –
O=C(NCCNc1ncccn1)NC[C@@H](O)c1cccc(Cl)c1 [VPC-70263] | 32% | –
O=C(NCCOc1cccc(Cl)c1)NCC[C@H](O)C(F)(F)F [VPC-70266] | 38% | –

SMILES | inhibition at 25 µM [2] | also measured
Cc1nc(C(=O)NC[C@@H](O)COCc2ccccc2)c2ccccn12 [VPC-70267] | 47% | –
COc1ccc2[nH]cc(CCNC(=O)CCc3nc(-c4ccccc4)no3)c2c1 [VPC-70277] | – | inhibition at 25 µM [3]: 95%; IC50: > 25 µM
Cc1ccccc1OC[C@@H](O)C(=O)NCC1(O)C2CC3CC(C2)CC1C3 (stereo partly drawn) [VPC-70283] | 45% | –
C[C@H](CCc1ccccc1)NC(=O)[C@H]1CCCN(C(=O)CCc2c[nH]c3ccccc23)C1 [VPC-70314] | – | inhibition at 25 µM [3]: 93%; IC50: 15 µM
NC(=O)CC[C@H](NC(=O)C1(c2ccccc2)CCN(C(=O)[C@@H]2CCCN2)CC1)C(=O)O [VPC-70318] | 54% | –
NC(=O)c1ccc(NC(=O)COC(=O)[C@H](Cc2ccccc2)NC(=O)c2ccccc2)cc1 [VPC-70339] | 50% | –
COc1cccc(NC(=O)c2ccccc2N(C)C(=O)CCC(=O)NCc2ccccc2)c1 [VPC-70340] | 49% | –
COc1ccccc1CNC(=O)c1ccc(N=S(=O)(O)c2ccc([C@@H](C)O)cc2)cc1 [VPC-70341] | 50% | –
CC(=O)N1c2ccc(S(=O)(O)=Nc3ccc(C(=O)NCC(=O)O)cc3)cc2C[C@@H]1C [VPC-70343] | 54% | –
O=C(O)CCC1CCN(C(=O)c2ccc(S(=O)(=O)NCc3cccs3)cc2)CC1 [VPC-70344] | 49% | –
COc1ccccc1-c1noc(CNC(=O)N[C@H](Cc2c[nH]c3ccccc23)C(=O)O)n1 [VPC-70345] | 51% | –
O=C(CSc1nc2ccccc2c(=O)n1CCCO)NC(=O)Nc1ccccc1F [VPC-70355] | 51% | –
Cc1ccccc1C(=O)N[C@H](CC(C)C)C(=O)N1CCN(S(=O)(=O)c2nc[nH]n2)CC1 [VPC-70356] | 53% | –
Cc1ccc(C(=O)N(C)c2ccc(OCC(=O)NCc3ccc(C(=O)O)cc3)cc2)cc1 [VPC-70358] | 48% | –
COCCn1c(Cc2ccccc2)nnc1SCC(=O)c1ccc2c(c1)CCC(=O)N2 [VPC-70359] | 41% | –
C[C@H](OC(=O)[C@@H]1CCCN1C(=O)C12CC3CC(CC(C3)C1)C2)C(=O)c1c[nH]c2ccccc12 [VPC-70360] | 64% | –
CS(=O)(=O)NCCc1ccc(C(=O)NC[C@H](c2cccs2)c2c[nH]c3ccccc23)cc1 [VPC-70361] | 61% | –
C[C@H]1CC[C@H](C(N)=O)CN1C(=O)c1cccc(S(=O)(O)=Nc2cccc(Cl)c2)c1 [VPC-70366] | 60% | –
O=C1COc2ccc(S(=O)(=O)N3CCC(C(=O)NC4CCCCCC4)CC3)cc2N1 [VPC-70376] | 55% | –
Cc1ccsc1CCNC(=O)CCS(=O)(=O)c1cc2c(cc1Cl)NC(=O)CO2 [VPC-70377] | 52% | –
CCOCCOc1nc(-c2cccc(F)c2)n(-c2ccc(NC[C@H](O)COC)cc2)n1 [VPC-70379] | 52% | –
Cc1cc2c(cc1S(=O)(=O)N1CCN(C(=O)CCC3CCCC3)CC1)OCC(=O)N2 [VPC-70380] | 68% | –
CC[C@@H]1Oc2cc(S(=O)(=O)N(C)CC(=O)N(C)Cc3ccccc3)c(C)cc2NC1=O [VPC-70381] | – | inhibition at 25 µM [3]: 74%; IC50: 20 µM

SMILES | inhibition at 25 µM [2] | also measured
Cc1cccc(CSc2nc(O)c3c(n2)NC(=O)C[C@H]3C(=O)Nc2cccc(F)c2)c1 [VPC-70384] | 53% | –
C[C@@H](NC(=O)OCc1ccccc1)C(=O)N[C@H](CCC(N)=O)C(=O)OCc1ccc([N+](=O)[O-])cc1 [VPC-70386] (HELM PEPTIDE1{[O=C(OCc1ccccc1)[*:2]].[dA].[dQ].[O=[N+]([O-])c1ccc(CO[*:1])cc1]}$$$$V2.0) | 55% | –
O=C(CCN1C(=O)S/C(=C/C=C/c2ccccc2)C1=O)NCCc1c[nH]c2ccccc12 [VPC-70387] | – | inhibition at 25 µM [3]: 82%
O=C(CCN1C(=O)S/C(=C\c2ccccc2)C1=O)NCCc1c[nH]c2ccccc12 [VPC-70388] | – | inhibition at 25 µM [3]: 77%; IC50: 20 µM
Cc1ccc(O)c(-c2cc(C(=O)Nc3ccc(S(=O)(=O)N4CCCCC4)cc3)n[nH]2)c1 [VPC-70389] | 58% | –
Cc1cccc(-c2cc(C(=O)Nc3ccc(S(=O)(=O)N4CCCCC4)cc3)n[nH]2)c1O [VPC-70390] | – | inhibition at 25 µM [3]: 97%; IC50: 9 µM
CS(=O)(=O)Nc1cccc(C2=NN(C(=O)CCC(=O)O)[C@H](c3ccccc3O)C2)c1 [VPC-70391] | 54% | –
CCn1c(CC(=O)Nc2cccc(C)c2)nnc1SCC(=O)Nc1cc(F)ccc1F [VPC-70392] | 58% | –
Cc1c(CC(=O)NCC[C@@H](c2ccc(Cl)cc2)C(C)C)c(=O)oc2c(O)c(O)ccc12 [VPC-70393] | – | inhibition at 25 µM [3]: 96%
NS(=O)(=O)c1ccc(NC(=O)[C@H]2CC=CC[C@H]2C(=O)O)cc1 [VPC-70394] | 54% | –
O=C(N[C@H](CO)Cc1ccccc1)c1cc(-n2cnnc2)ccc1Cl [VPC-70395] | 56% | IC50: > 25 µM
CCCc1cc(=O)oc2cc(C)cc(OCC(=O)N[C@@H](C)C(=O)O)c12 [VPC-70404] | 53% | –
CCCc1cc(=O)oc2cc(C)cc(OCC(=O)N[C@H](C(=O)O)C(C)C)c12 [VPC-70405] | 54% | –
FC(F)(F)c1cc(NC(=S)NC[C@H]2CCCO2)cc(C(F)(F)F)c1 [VPC-70437] | – | inhibition at 5 µM (TABLE 3): 24%; inhibition at 10 µM (10 μM, TABLE 3): 105%; inhibition at 25 µM [3]: 87%
S=C(NCc1cccs1)Nc1ccc(Cl)c(Cl)c1 [VPC-70458] | – | inhibition at 5 µM (TABLE 3): 42%; inhibition at 10 µM (10 μM, TABLE 3): 104%; inhibition at 25 µM [3]: 86%
Fc1ccccc1CNC(=S)Nc1cccc(C(F)(F)F)c1 [VPC-70465] | – | % Inhibition 10 μM (10 μM, TABLE 3): 95%; inhibition at 5 µM (TABLE 3): 51%; inhibition at 25 µM [3]: 92%; IC50: 10 µM
O=C(NCc1ccccc1Cl)Nc1ccc(Cl)c(Cl)c1 [VPC-70466] | – | inhibition at 5 µM (TABLE 3): 1%; inhibition at 10 µM (10 μM, TABLE 3): 48%; inhibition at 25 µM [3]: 86%
Cc1c(Cl)cccc1NC(=S)NCc1ccc(F)cc1 [VPC-70468] | – | inhibition at 5 µM (TABLE 3): 9%; inhibition at 10 µM (10 μM, TABLE 3): 30%; inhibition at 25 µM [3]: 74%
CC[C@@H](NC(=S)Nc1cccc(C)c1)c1ccccc1 [VPC-70473] | – | inhibition at 25 µM [3]: 77%
S=C(NCc1ccccc1)Nc1cccc(Cl)c1 [VPC-70477] | – | inhibition at 5 µM (TABLE 3): 3%; inhibition at 10 µM (10 μM, TABLE 3): 30%; inhibition at 25 µM [3]: 99%
Cc1cc(NC(=S)NCC(C)C)cc(C(F)(F)F)c1 [VPC-70478] | – | inhibition at 5 µM (TABLE 3): 26%; inhibition at 10 µM (10 μM, TABLE 3): 65%; inhibition at 25 µM [3]: 91%
